# From patent US10597387B2, “Methods to treat lymphoplasmacytic lymphoma” (Dana-Farber Cancer Institute, Inc., priority 2013, dated 2020)
# Where two headings read alike, the source gives them in different places.
# Experiments:
# p38a = p38a (Homo sapiens (Human), UniProt Q16539); experiment: KiNativ kinase profiling; format: binding; conditions: Protein Kinase Domain, A375 cells, read-out: inhibition of kinase labeling
# MAP3K2, MAP3K3 = experiment: KiNativ kinase profiling; format: binding, Homo sapiens; conditions: Lys2, 1 μM, A375 cells
# BLK = BLK (Homo sapiens (Human), UniProt P51451); experiment: KiNativ kinase profiling; format: binding; conditions: Activation Loop, A375 cells, read-out: inhibition of kinase labeling
# RSK2 domain1 = RSK2 domain1 (Homo sapiens (Human), UniProt P51812); experiment: KiNativ kinase profiling; format: binding; conditions: Lys2, A375 cells, read-out: inhibition of kinase labeling
# ZAK = ZAK (Homo sapiens (Human), UniProt Q9NYL2); experiment: KiNativ kinase profiling; format: binding
# Chain of ZAK (Q9NYL2 whole entry): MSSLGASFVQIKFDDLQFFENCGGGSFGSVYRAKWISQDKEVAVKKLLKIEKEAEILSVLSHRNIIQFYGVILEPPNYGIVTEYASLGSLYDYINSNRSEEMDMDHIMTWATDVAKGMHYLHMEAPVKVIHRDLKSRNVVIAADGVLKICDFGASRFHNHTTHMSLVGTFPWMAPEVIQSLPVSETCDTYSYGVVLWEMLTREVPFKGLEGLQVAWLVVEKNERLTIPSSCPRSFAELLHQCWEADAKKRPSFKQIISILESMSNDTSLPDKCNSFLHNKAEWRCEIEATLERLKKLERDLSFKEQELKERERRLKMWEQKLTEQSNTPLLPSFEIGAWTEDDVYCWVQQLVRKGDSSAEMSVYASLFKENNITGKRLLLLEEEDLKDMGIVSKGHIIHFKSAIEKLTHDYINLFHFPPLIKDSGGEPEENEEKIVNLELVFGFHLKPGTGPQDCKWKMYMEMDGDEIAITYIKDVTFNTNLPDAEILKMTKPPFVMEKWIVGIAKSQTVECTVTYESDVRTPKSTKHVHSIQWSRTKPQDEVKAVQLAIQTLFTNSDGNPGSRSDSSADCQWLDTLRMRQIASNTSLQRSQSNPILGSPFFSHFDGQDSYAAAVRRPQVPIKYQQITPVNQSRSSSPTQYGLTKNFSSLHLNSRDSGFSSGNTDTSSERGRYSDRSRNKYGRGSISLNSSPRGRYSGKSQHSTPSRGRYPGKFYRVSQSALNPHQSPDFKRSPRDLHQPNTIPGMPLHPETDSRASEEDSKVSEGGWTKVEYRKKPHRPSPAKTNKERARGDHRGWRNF
# TLK1 = TLK1 (Homo sapiens (Human), UniProt Q9UKI8); experiment: KiNativ kinase profiling; format: binding; conditions: Lys2, A375 cells, read-out: inhibition of kinase labeling
# Chain of TLK1 (Q9UKI8 whole entry): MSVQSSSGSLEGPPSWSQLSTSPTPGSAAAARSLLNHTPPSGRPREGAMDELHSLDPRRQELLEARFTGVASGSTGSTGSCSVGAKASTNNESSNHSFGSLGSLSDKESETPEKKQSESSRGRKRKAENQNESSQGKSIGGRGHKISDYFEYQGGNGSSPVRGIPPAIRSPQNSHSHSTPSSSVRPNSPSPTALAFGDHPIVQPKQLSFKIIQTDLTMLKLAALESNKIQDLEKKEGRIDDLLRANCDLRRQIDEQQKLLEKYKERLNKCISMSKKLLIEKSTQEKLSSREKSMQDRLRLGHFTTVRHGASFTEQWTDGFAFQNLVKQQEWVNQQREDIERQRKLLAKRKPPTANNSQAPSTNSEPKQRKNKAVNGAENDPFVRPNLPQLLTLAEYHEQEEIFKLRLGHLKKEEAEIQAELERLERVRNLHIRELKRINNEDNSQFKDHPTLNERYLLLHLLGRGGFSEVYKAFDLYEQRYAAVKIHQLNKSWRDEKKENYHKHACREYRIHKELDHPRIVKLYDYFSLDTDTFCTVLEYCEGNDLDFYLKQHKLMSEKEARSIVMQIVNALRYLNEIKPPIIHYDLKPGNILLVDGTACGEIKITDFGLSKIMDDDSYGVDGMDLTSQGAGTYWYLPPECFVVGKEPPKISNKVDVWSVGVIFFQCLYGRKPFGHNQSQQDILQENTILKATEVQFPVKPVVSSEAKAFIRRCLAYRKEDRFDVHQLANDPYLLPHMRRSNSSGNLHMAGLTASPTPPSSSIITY
# STLK6 = STLK6 (Homo sapiens (Human), UniProt Q9C0K7); experiment: KiNativ kinase profiling; format: binding; conditions: Lys2, A375 cells, read-out: inhibition of kinase labeling
# Chain of STLK6 (Q9C0K7 whole entry): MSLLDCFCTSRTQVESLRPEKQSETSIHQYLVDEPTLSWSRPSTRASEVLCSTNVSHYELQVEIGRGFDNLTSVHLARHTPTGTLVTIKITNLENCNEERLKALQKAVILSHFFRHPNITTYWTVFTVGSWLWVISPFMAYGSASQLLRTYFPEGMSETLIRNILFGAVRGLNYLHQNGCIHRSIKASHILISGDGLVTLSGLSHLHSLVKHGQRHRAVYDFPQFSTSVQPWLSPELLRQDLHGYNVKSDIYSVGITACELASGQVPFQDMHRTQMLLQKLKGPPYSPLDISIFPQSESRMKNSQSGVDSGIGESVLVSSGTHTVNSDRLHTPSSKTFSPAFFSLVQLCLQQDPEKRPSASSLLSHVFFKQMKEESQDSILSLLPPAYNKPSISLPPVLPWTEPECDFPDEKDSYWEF
# BRAF = BRAF (Homo sapiens (Human), UniProt P15056, V600E); experiment: KiNativ kinase profiling; format: binding; conditions: Lys2, A375 cells, read-out: inhibition of kinase labeling
# NEK7 = NEK7 (Homo sapiens (Human), UniProt Q8TDX7); experiment: KiNativ kinase profiling; format: binding; conditions: Lys1, A375 cells, read-out: inhibition of kinase labeling
# KHS1 = KHS1 (Homo sapiens (Human), UniProt Q9Y4K4); experiment: KiNativ kinase profiling; format: binding; conditions: Lys1, A375 cells, read-out: inhibition of kinase labeling
# JAK1 domain2 = JAK1 domain2 (Homo sapiens (Human), UniProt P23458); experiment: KiNativ kinase profiling; format: binding; conditions: Lys1, A375 cells, read-out: inhibition of kinase labeling
# eEF2K = eEF2K (Homo sapiens (Human), UniProt O00418); experiment: KiNativ kinase profiling; format: binding; conditions: ATP, A375 cells, read-out: inhibition of kinase labeling
# IKKe = IKKe (Homo sapiens (Human), UniProt Q14164); experiment: KiNativ kinase profiling; format: binding; conditions: Lys1, A375 cells, read-out: inhibition of kinase labeling
# ABL, ARG = experiment: KiNativ kinase profiling; format: binding, Homo sapiens; conditions: Activation Loop, 1 μM, A375 cells
# NEK6, NEK7 = experiment: KiNativ kinase profiling; format: binding, Homo sapiens; conditions: Lys2, 1 μM, A375 cells
# MAP2K4 = MAP2K4 (Homo sapiens (Human), UniProt P45985); experiment: KiNativ kinase profiling; format: binding; conditions: Lys2, A375 cells, read-out: inhibition of kinase labeling
# Chain of MAP2K4 (P45985 whole entry): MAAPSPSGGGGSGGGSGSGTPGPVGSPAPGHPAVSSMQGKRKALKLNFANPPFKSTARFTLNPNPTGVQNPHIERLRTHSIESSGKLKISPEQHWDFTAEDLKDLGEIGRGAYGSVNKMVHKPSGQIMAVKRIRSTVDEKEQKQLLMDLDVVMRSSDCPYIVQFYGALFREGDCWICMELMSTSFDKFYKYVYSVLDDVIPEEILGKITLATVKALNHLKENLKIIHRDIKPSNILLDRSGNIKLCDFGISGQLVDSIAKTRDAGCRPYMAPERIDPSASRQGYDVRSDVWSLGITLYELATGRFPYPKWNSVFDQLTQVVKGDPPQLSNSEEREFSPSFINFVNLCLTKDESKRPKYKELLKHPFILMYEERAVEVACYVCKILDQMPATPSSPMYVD
# LKB1 = LKB1 (Homo sapiens (Human), UniProt Q15831); experiment: KiNativ kinase profiling; format: binding; conditions: Lys2, A375 cells, read-out: inhibition of kinase labeling
# Chain of LKB1 (Q15831 whole entry): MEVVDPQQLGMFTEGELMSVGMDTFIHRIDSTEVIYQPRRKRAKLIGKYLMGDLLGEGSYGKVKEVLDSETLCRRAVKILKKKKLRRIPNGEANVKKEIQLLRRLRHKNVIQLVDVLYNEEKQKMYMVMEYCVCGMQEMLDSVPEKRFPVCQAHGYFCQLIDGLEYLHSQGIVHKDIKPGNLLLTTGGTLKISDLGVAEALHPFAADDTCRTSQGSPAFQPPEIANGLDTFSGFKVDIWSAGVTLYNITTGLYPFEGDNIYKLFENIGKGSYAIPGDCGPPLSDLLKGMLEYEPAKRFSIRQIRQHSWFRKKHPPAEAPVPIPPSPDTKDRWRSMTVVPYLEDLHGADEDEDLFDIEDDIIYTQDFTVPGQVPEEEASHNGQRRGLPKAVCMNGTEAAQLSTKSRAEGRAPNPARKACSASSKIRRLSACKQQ
# Chain of LKB1 (Q7RTN6 whole entry partner): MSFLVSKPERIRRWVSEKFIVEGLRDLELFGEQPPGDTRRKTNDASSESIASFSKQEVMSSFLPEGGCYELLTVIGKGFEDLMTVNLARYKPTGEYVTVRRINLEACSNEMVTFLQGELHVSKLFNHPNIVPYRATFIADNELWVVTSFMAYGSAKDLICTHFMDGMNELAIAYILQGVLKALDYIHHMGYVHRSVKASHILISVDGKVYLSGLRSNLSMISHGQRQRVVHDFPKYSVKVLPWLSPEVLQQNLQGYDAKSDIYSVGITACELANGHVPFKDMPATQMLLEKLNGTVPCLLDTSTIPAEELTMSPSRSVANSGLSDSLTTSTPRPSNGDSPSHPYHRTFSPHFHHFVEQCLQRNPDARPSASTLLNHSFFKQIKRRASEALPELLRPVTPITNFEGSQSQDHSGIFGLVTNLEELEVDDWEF
# Chain of LKB1 (Q9Y376 whole entry partner): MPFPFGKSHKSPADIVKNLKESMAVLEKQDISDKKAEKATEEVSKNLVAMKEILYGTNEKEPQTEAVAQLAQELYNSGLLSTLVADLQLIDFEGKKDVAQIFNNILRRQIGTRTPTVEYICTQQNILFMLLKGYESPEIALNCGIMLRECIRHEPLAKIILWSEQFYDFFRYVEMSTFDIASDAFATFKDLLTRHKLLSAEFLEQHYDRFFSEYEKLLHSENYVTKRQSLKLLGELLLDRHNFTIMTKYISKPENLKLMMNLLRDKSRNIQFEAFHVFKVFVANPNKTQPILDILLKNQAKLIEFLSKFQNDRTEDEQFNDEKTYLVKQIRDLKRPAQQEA
# PKD1, PKD2 = experiment: KiNativ kinase profiling; format: binding, Homo sapiens; conditions: Lys2, 1 μM, A375 cells
# MAP2K6 = MAP2K6 (Homo sapiens (Human), UniProt P52564); experiment: KiNativ kinase profiling; format: binding; conditions: Lys2, A375 cells, read-out: inhibition of kinase labeling
# PIP4K2A = PIP4K2A (Homo sapiens (Human), UniProt P48426); experiment: KiNativ kinase profiling; format: binding; conditions: ATP, A375 cells, read-out: inhibition of kinase labeling
# PITSLRE = experiment: KiNativ kinase profiling; format: binding, Homo sapiens; conditions: Lys2, 1 μM, A375 cells
# ULK3 = ULK3 (Homo sapiens (Human), UniProt Q6PHR2); experiment: KiNativ kinase profiling; format: binding; conditions: Lys1, A375 cells, read-out: inhibition of kinase labeling
# MAP3K1 = MAP3K1 (Homo sapiens (Human), UniProt Q13233); experiment: KiNativ kinase profiling; format: binding; conditions: Lys2, A375 cells, read-out: inhibition of kinase labeling
# SLK = SLK (Homo sapiens (Human), UniProt Q9H2G2); experiment: KiNativ kinase profiling; format: binding; conditions: Lys2, A375 cells, read-out: inhibition of kinase labeling
# SYK = SYK (Homo sapiens (Human), UniProt P43405); experiment: KiNativ kinase profiling; format: binding; conditions: read-out: inhibition of kinase labeling
# BTK = BTK (Homo sapiens (Human), UniProt Q06187); experiment: Invitrogen Select Screening kinase assay; format: biochemical; conditions: in vitro
# Chain of BTK (Q06187 whole entry): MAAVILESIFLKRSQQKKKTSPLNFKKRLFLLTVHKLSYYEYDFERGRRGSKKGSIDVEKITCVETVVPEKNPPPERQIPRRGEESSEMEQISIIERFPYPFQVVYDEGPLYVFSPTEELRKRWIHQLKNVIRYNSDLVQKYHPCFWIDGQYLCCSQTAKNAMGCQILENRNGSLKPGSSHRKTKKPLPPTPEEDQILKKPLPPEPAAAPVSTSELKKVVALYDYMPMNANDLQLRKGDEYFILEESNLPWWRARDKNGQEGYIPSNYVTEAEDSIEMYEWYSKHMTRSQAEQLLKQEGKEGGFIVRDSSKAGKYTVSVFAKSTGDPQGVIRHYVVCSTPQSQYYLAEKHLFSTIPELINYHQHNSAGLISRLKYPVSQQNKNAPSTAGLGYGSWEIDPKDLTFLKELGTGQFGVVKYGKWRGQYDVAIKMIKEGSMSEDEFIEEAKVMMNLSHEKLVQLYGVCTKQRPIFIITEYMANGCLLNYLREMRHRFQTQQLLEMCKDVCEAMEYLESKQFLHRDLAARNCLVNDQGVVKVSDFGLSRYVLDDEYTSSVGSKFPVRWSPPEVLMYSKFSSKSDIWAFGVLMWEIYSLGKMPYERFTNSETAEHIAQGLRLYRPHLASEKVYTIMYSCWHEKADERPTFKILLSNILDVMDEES
# Source text: The in vitro activity of the compounds described herein in inhibiting TAK1, HCK, and other kinases were obtained using an Invitrogen Select Screening assay as known in the art. The IC50 values determined from this assay are shown below.
# MST1 = MST1 (Homo sapiens (Human), UniProt Q13043); experiment: KiNativ kinase profiling; format: binding; conditions: Lys1, A375 cells, read-out: inhibition of kinase labeling
# PIK3CD = PIK3CD (Homo sapiens (Human), UniProt O00329); experiment: KiNativ kinase profiling; format: binding; conditions: ATP, A375 cells, read-out: inhibition of kinase labeling
# CK1a = CK1a (Homo sapiens (Human), UniProt P48729); experiment: KiNativ kinase profiling; format: binding; conditions: Lys2, A375 cells, read-out: inhibition of kinase labeling
# Chain of CK1a (P48729 whole entry): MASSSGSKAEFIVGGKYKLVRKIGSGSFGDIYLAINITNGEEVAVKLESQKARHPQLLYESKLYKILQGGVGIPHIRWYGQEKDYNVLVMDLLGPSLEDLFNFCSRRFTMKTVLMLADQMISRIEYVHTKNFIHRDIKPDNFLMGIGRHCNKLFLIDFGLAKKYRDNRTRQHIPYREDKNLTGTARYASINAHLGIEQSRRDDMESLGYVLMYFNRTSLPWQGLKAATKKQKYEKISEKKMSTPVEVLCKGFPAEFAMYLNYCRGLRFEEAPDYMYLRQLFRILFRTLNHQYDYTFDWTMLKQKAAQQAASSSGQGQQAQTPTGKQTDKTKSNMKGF
# PIK3CB = PIK3CB (Homo sapiens (Human), UniProt P42338); experiment: KiNativ kinase profiling; format: binding; conditions: ATP, A375 cells, read-out: inhibition of kinase labeling
# RSK2 domain2 = RSK2 domain2 (Homo sapiens (Human), UniProt P51812); experiment: KiNativ kinase profiling; format: binding; conditions: Lys2, A375 cells, read-out: inhibition of kinase labeling
# PIP4K2C = PIP4K2C (Homo sapiens (Human), UniProt Q8TBX8); experiment: KiNativ kinase profiling; format: binding; conditions: ATP, A375 cells, read-out: inhibition of kinase labeling
# CDK7 = CDK7 (Homo sapiens (Human), UniProt P50613); experiment: KiNativ kinase profiling; format: binding; conditions: Lys2, A375 cells, read-out: inhibition of kinase labeling
# Chain of CDK7 (P50613 whole entry): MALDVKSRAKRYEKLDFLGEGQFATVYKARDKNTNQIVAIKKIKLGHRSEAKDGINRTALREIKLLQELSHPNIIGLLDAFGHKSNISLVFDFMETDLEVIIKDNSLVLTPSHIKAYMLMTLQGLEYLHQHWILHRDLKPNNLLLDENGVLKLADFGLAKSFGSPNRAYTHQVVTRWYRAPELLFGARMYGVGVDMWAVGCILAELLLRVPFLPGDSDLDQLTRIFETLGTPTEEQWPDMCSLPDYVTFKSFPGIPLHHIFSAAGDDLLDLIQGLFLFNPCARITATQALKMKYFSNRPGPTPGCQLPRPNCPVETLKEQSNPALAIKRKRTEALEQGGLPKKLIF
smiles,measurement,setting,value
"Cc1ccc(C(=O)Nc2cccc(C(C)(C)C#N)c2)cc1NC(=O)c1cncc(-c2cccs2)c1 [I-6, N-(5-((3-(2-cyanopropan-2-yl)phenyl)carbamoyl)-2-methylphenyl)-5-(thiophen-2-yl)nicotinamide]",inhibition at 1 µM,p38a,85.1%
same,inhibition of kinase labeling,"MAP3K2, MAP3K3",−15.3%
same,inhibition at 1 µM,BLK,68.8%
same,inhibition at 1 µM,RSK2 domain1,5%
same,inhibition of kinase labeling,"ZAK; Lys1, 1 μM, A375 cells",>95%
same,inhibition at 1 µM,"ZAK; Lys1, A375 cells, read-out: inhibition of kinase labeling",> 95%
same,inhibition at 1 µM,TLK1,3.9%
same,inhibition at 1 µM,STLK6,44.8%
same,inhibition at 1 µM,BRAF,-20.3%
same,inhibition at 1 µM,NEK7,10.7%
same,inhibition at 1 µM,KHS1,-21.8%
same,inhibition at 1 µM,JAK1 domain2,3.3%
same,inhibition at 1 µM,eEF2K,12%
same,inhibition at 1 µM,IKKe,3.8%
same,inhibition of kinase labeling,"ABL, ARG",>90%
same,inhibition of kinase labeling,"NEK6, NEK7",−3.7%
same,inhibition at 1 µM,MAP2K4,-14.6%
same,inhibition at 1 µM,LKB1,4.9%
same,inhibition of kinase labeling,"PKD1, PKD2",−2.5%
same,inhibition at 1 µM,MAP2K6,9.4%
same,inhibition at 1 µM,PIP4K2A,12.8%
same,inhibition of kinase labeling,PITSLRE,1.9%
same,inhibition at 1 µM,ULK3,-21.5%
same,inhibition at 1 µM,MAP3K1,9.8%
same,inhibition at 1 µM,SLK,-19.5%
same,inhibition at 1 µM,"SYK; Activation Loop, A375 cells",-7.9%
same,inhibition at 1 µM,"SYK; Lys1, A375 cells",-38.5%
same,IC50,BTK,1150 nM
same,inhibition at 1 µM,MST1,-26.3%
same,inhibition at 1 µM,PIK3CD,-6.8%
same,inhibition at 1 µM,CK1a,25.1%
same,inhibition at 1 µM,PIK3CB,2.8%
same,inhibition at 1 µM,RSK2 domain2,-15.8%
same,inhibition at 1 µM,PIP4K2C,12.3%
same,inhibition at 1 µM,CDK7,-6.8%
